Measured values from the supplement of paper PMC10307832.

Key:
Test in all cases: relative viability (nuclei count vs DMSO), 5 days (fraction); higher = more cells survive
[1] = compound: CC1=C(CC(=O)O)c2cc(F)ccc2/C1=C\c1ccc([S+](C)[O-])cc1 [Sulindac] + COc1cc2c(Oc3ccc(NC(=O)C4(C(=O)Nc5ccc(F)cc5)CC4)cc3F)ccnc2cc1OCCCN1CCOCC1 [Foretinib] (partner 0.25 µM)
Summary of the method: (§1)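 Values are medians from duplicate plates. Each reflects relative viability, defined as the nuclei count of treated wells over that of vehicle wells. Lung cancer cell lines in 1536-well plates were pin-tool dosed one day after seeding with one drug alone or with a fixed anchor-drug dose plus five library-drug doses (not always all listed) in √10 steps, then fixed, stained and imaged at 4× after 5 days.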

[2] = compound: CC1=C(CC(=O)O)c2cc(F)ccc2/C1=C\c1ccc([S+](C)[O-])cc1 [Sulindac] + C[C@]1(O)C[C@@H](c2nc(-c3ccc4ccc(-c5ccccc5)nc4c3)c3c(N)nccn32)C1 [Linsitinib] (partner 1 µM)
Summary of the method: as §1

[3] = compound: O=c1[nH]cc(F)c(=O)[nH]1 [5-Fluorouracil] + C[C@]1(O)C[C@@H](c2nc(-c3ccc4ccc(-c5ccccc5)nc4c3)c3c(N)nccn32)C1 [Linsitinib] (partner 1 µM)
Summary of the method: as §1

[4] = compound: O=c1[nH]cc(F)c(=O)[nH]1 [5-Fluorouracil] + Cc1cc(Nc2cc(N3CCN(C)CC3)nc(Sc3ccc(NC(=O)C4CC4)cc3)n2)n[nH]1 [Tozasertib] (partner 0.1 µM)
Summary of the method: as §1

Row | Cell Line | relative viability ([1]; first compound 0.08 µM) | relative viability ([1]; first compound 0.253 µM) | relative viability ([1]; first compound 8 µM) | relative viability ([2]; first compound 0.08 µM) | relative viability ([2]; first compound 0.253 µM) | relative viability ([2]; first compound 0.8 µM) | relative viability ([2]; first compound 2.53 µM) | relative viability ([2]; first compound 8 µM) | relative viability ([3]; first compound 0.02 µM) | relative viability ([3]; first compound 0.2 µM) | relative viability ([3]; first compound 0.6325 µM) | relative viability ([3]; first compound 2 µM) | relative viability ([4]; first compound 0.02 µM) | relative viability ([4]; first compound 0.2 µM) | relative viability ([4]; first compound 0.6325 µM) | relative viability ([4]; first compound 2 µM) | relative viability ([1]; first compound 0.8 µM) | relative viability ([1]; first compound 2.53 µM)
1 | 201T | 1.1 | 1.08 | 1.22 | 1.06 | 1.04 | 1.1 | 1.02 | 1.01 | 0.991 | 0.955 | 0.452 | 0.342 | 0.916 | 0.477 | 0.369 | 0.313 |  | 
2 | A549 | 1.04 | 1.12 | 1.12 | 0.532 | 0.535 |  | 0.572 | 0.641 | 0.633 | 0.652 | 0.301 | 0.119 |  |  |  |  | 0.653 | 0.975
3 | A-427 | 1.08 | 1.05 | 1.02 | 1.1 | 1.14 | 1.11 | 1.14 | 1.11 | 1.05 | 1.08 | 1.11 | 0.546 | 0.181 |  | 0.189 | 0.159 | 0.979 | 1.17
4 | ABC-1 | 1.02 | 0.96 | 1.33 | 1.22 | 0.806 | 0.627 | 0.629 | 0.741 | 0.739 | 0.987 | 0.714 | 0.748 | 0.163 | 0.184 | 0.171 | 0.195 | 1.02 | 0.867
5 | BEN | 0.834 | 0.693 | 0.771 | 1.02 | 0.892 | 0.571 | 0.967 | 1.07 | 0.813 | 0.754 | 0.641 | 0.646 | 0.43 | 0.479 | 0.491 | 0.535 | 0.57 | 0.569
6 | CAL-12T | 1.22 | 1.22 | 1.27 | 0.787 | 0.858 | 0.593 | 0.795 | 0.705 | 0.487 | 0.87 | 0.673 | 0.412 | 0.337 | 0.385 | 0.316 | 0.221 | 0.911 | 1.12
7 | COR-L23 | 1.18 | 1.03 | 1.26 | 1.18 | 0.925 |  | 0.906 | 0.999 | 0.846 | 0.945 | 0.43 | 0.234 |  |  |  |  | 0.88 | 0.982
8 | COR-L 105 | 0.871 | 0.904 | 1.44 | 1.1 | 0.857 | 0.729 | 0.992 | 1.13 | 0.976 | 0.862 | 0.937 | 0.575 | 0.303 | 0.328 | 0.323 | 0.26 | 1.18 | 0.783
9 | Calu-6 | 1.02 | 0.916 | 1.08 | 1.29 | 1.07 | 0.738 | 1.03 | 1.11 | 0.975 | 1.01 | 0.82 | 0.61 |  |  |  |  | 0.846 | 0.893
10 | ChaGo-K-1 | 1.05 | 0.999 | 0.926 |  |  |  |  |  |  |  |  |  |  |  |  |  | 0.925 | 0.991
11 | EBC-1 | 0.0937 | 0.0935 | 0.105 | 0.937 | 1.16 | 0.509 | 1.04 | 0.989 | 0.859 | 0.928 | 0.814 | 0.605 |  |  |  |  |  | 0.107
